Experiment [1] deals with prostanoid EP2 receptor. Description: Transient expression and activation of the EP2 receptor in the HEK293-pCRE5/SEAP transfectoma (SEAP reporter). The class given is cell-based. The settings on record: transiently transfected EP2 receptor, PGE2 challenge for 6 hours, SEAP readout; read-out: estimated EC50. Here is the method:
Twenty four hours after transfection with a plasmid containing the prostanoid EP2 receptor (closed symbol) or the empty vector (open symbol), the HEK293-pCRE5/SEAP transfectoma was challenged with PGE2 for 6 hours (FIG. 4). The estimated EC50 was below 1 nM of PGE2.

Experiment [2] concerns the target T1, prostanoid EP2 receptor (Homo sapiens, UniProt P43116).
T1 construct: expressed in transfected cells
Description: HEK293-pCRE5/SEAP transfectoma stably transfected with EP2 receptor, response to PGE2 with or without IBMX. The format is cell-based. To be noted: stable EP2 transfectant, 100 μM IBMX vs absence, 6 h. As for the experimental part: A HEK293-pCRE5/SEAP transfectoma was stably transfected with the prostanoid EP2 receptor and challenged with PGE2 in the absence (empty circles) or presence (closed circles) of 100 μM IBMX for 6 h and SEAP activity determined (FIG. 5). In this case, EC50 was shifted 10-fold to the left.

The test system of experiment [3] is HEK293-pCRE5/SEAP transfectoma. Briefly: Forskolin-induced SEAP production in stable HEK293-pCRE5/SEAP transfectoma, 50 h. The format is cell-based, human. As for the experimental part:
Upper Panel A: Stable HEK293-pCRE5/SEAP transfectoma was stimulated with 20 μM forskolin with or without 100 μM IBMX or 200 μM theophylline for 50 h and SEAP activity was then measured on an aliquot of the supernatant (FIG. 7).

T1 sequence (P43116 whole entry, species assumed): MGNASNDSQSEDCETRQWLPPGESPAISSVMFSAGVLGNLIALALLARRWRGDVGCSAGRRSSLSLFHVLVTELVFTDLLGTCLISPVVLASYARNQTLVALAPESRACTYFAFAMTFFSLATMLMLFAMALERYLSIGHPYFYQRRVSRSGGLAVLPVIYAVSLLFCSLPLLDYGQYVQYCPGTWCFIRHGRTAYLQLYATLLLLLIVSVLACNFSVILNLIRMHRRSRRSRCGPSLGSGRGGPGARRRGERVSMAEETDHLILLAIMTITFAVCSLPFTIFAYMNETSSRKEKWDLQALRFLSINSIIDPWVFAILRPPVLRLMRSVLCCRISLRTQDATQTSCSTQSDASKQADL

A word on the EC50: it is the concentration giving half of the maximal effect. In the case of `CCCCC[C@H](O)/C=C/[C@H]1[C@H](O)CC(=O)[C@@H]1C/C=C\CCCC(=O)O` [PGE2], the EC50 on prostanoid EP2 receptor [1] is under 1 nM. The “EC50 shift to the left in presence of IBMX” value at prostanoid EP2 receptor [2] is on record as 10 fold.

`C=C[C@@]1(C)CC(=O)[C@]2(O)[C@@]3(C)[C@@H](O)CCC(C)(C)[C@@H]3[C@H](O)[C@H](OC(C)=O)[C@@]2(C)O1` [forskolin]: the “fold-induction of SEAP activity (Panel B, independent experiment)” value in experiment [3] (20 μM forskolin with or without 100 μM IBMX) came to 198 fold. Further, the “fold-induction of SEAP activity (Panel A)” value in experiment [3] (20 μM forskolin with or without 100 μM IBMX or 200 μM theophylline) is given as 128 fold.

Values taken from US6596508B2, “CRE-inducible expression system” (National Research Council of Canada, priority 1999, dated 2003).
